Tests used:
Assay type in all cases: in vivo
Poa annua (POAAN) = assay: greenhouse post-emergence herbicidal efficacy against POAAN
Protocol: (§1) All trials whose results are shown were conducted in a greenhouse by the methodology specified below. The effect of the inventive herbicidal compositions was examined on the following harmful plants 14 and 21 days after application:
(§2) Echinochloa crus-galli (ECHCG), Eleusine indica (ELEIN), Setaria viridis (SETVI), Amaranthus retroflexus (AMARE), Chenopodium album (CHEAL), Kochia scoparia (KCHSC), Solanum nigrum (SOLNI), Avena fatua (AVEFA), Bromus sterilis (BROST), Lolium multiflorum (LOLMU), Phalaris minor (PHAMI), Poa annua (POAAN), Galium aparine (GALAP), Matricaria inodora (MATIN) and Polygonum convolvulus (POLCO).
(§3) The harmful plant seeds were sown in pots (diameter 8 cm) with sandy loam soil and germinated under optimal conditions. The inventive herbicidal compositions or the active ingredients alone were applied post-emergence to the planted pots with a spray volume of 300 L/ha. The trial was conducted in a greenhouse under optimum growth conditions. The herbicidal effects were assessed visually by comparison of untreated and treated plants. The percentages mean: 0%=no effects, 100%=the plants die off completely).
(§4) The abbreviations mean: • a.i.=active ingredient • E^C=expected value according to Colby (E^C=A+B−A×B/100) • Diff: =difference (%) of measured value from expected value (%) (measured value minus expected value)
(§5) Assessment: • measured value E is greater than E^C:->synergism (+ diff.) • measured value E equals E^C:->additive effect • measured value E is smaller than E^C:->antagonism(− diff.)

[1] = test system: Lolium multiflorum (LOLMU); assay: greenhouse post-emergence herbicidal efficacy against LOLMU
Protocol: as §1, §2, §3, §4, §5

Galium aparine (GALAP) = assay: greenhouse post-emergence herbicidal efficacy against GALAP
Protocol: as §1, §2, §3, §4, §5

Phalaris minor (PHAMI) = assay: greenhouse post-emergence herbicidal efficacy against PHAMI
Protocol: as §1, §2, §3, §4, §5

Avena fatua (AVEFA) = assay: greenhouse post-emergence herbicidal efficacy against AVEFA
Protocol: as §1, §2, §3, §4, §5

Bromus sterilis (BROST) = assay: greenhouse post-emergence herbicidal efficacy against BROST
Protocol: as §1, §2, §3, §4, §5

[2] = test system: Matricaria inodora (MATIN); assay: greenhouse post-emergence herbicidal efficacy against MATIN
Protocol: as §1, §2, §3, §4, §5

[3] = test system: Polygonum convolvulus (POLCO); assay: greenhouse post-emergence herbicidal efficacy against POLCO
Protocol: as §1, §2, §3, §4, §5

[4] = 21 days after application, g of a.i./ha: A1-13 10, indaziflam 10
[5] = 14 days after application, g of a.i./ha: A1-13 2.5, indaziflam 10
[6] = 14 days after application, g of a.i./ha: A1-13 10, indaziflam 40
[7] = 21 days after application, g of a.i./ha: A1-13 2.5, indaziflam 40
[8] = 21 days after application, g of a.i./ha: A1-13 10, indaziflam 40
[9] = 14 days after application, g of a.i./ha: A1-60 2.5, isoproturon 1600
[10] = 14 days after application, g of a.i./ha: A1-60 10, isoproturon 400
[11] = 14 days after application, g of a.i./ha: A1-60 10, isoproturon 1600
[12] = 21 days after application, g of a.i./ha: A1-60 10, isoproturon 400
[13] = 14 days after application, g of a.i./ha: A1-60 2.5, isoproturon 400
[14] = 21 days after application, g of a.i./ha: A1-60 10, isoproturon 1600
[15] = 21 days after application, g of a.i./ha: A1-60 2.5, isoproturon 400
[16] = 14 days after application, 25 g of a.i./ha
[17] = 14 days after application, 100 g of a.i./ha
[18] = 21 days after application, g of a.i./ha: A1-14 2.5, pyrasulfotole 25
[19] = 21 days after application, g of a.i./ha: A1-14 2.5, pyrasulfotole 100
[20] = 21 days after application, g of a.i./ha: A1-14 10, pyrasulfotole 25
[21] = 21 days after application, g of a.i./ha: A1-14 10, pyrasulfotole 100
[22] = 14 days after application, g of a.i./ha: A1-7 2.5, saflufenacil 2
[23] = 14 days after application, g of a.i./ha: A1-7 2.5, saflufenacil 8
[24] = 21 days after application, g of a.i./ha: A1-7 10, saflufenacil 8

For `Cc1ccc2c(c1)[C@H](Nc1nc(N)nc(C(C)F)n1)[C@@H](C)C2` (some centres unmarked) [indaziflam], the “Efficacy against POAAN” value (Poa annua (POAAN); 21 days after application, dosage 10 g of a.i./ha) was 0%, the Efficacy [1, 4] was 0% and the Efficacy (Galium aparine (GALAP); [5]) was 50%. The Efficacy (Galium aparine (GALAP); [6]) was 60%, the “Efficacy against GALAP” value (Galium aparine (GALAP); 21 days after application, dosage 40 g of a.i./ha) was 35% and the Efficacy (Phalaris minor (PHAMI); 14 days after application, g of a.i./ha: A1-13 2.5, indaziflam 40) was 10%. The Efficacy (Phalaris minor (PHAMI); [6]) was 10%, the Efficacy (Phalaris minor (PHAMI); [7]) was 10% and the Efficacy (Phalaris minor (PHAMI); [8]) was 10%. The Efficacy (Avena fatua (AVEFA); [7]) was 10%, the Efficacy (Avena fatua (AVEFA); [8]) was 10% and the Efficacy (Bromus sterilis (BROST); [4]) was 0%. It also gave an Efficacy [2, 5] of 30% and an Efficacy ([2]; 14 days after application, g of a.i./ha: A1-13 10, indaziflam 10) of 30%.
`CC(C)c1ccc(NC(=O)N(C)C)cc1` [isoproturon] showed an Efficacy (Poa annua (POAAN); [9]) of 80%, an Efficacy (Poa annua (POAAN); [10]) of 60% and an Efficacy (Poa annua (POAAN); [11]) of 80%. For the same molecule, the Efficacy (Poa annua (POAAN); [12]) was 30%, the Efficacy [1, 13] was 0% and the Efficacy [1, 9] was 15%. The Efficacy [1, 10] was 0%, the Efficacy [1, 11] was 15% and the Efficacy [1, 12] was 0%. For the same molecule, the Efficacy [1, 14] was 0%, the Efficacy (Galium aparine (GALAP); [13]) was 10% and the Efficacy (Galium aparine (GALAP); [9]) was 20%. For the same molecule, the Efficacy (Galium aparine (GALAP); [10]) was 10%, the Efficacy (Galium aparine (GALAP); [11]) was 20% and the Efficacy (Galium aparine (GALAP); [15]) was 0%. The Efficacy (Galium aparine (GALAP); 21 days after application, g of a.i./ha: A1-60 2.5, isoproturon 1600) was 0%, the Efficacy (Galium aparine (GALAP); [12]) was 0% and the Efficacy (Galium aparine (GALAP); [14]) was 0%. It also gave an Efficacy (Phalaris minor (PHAMI); [13]) of 35%, an Efficacy (Phalaris minor (PHAMI); [10]) of 35% and an Efficacy (Phalaris minor (PHAMI); [11]) of 80%. It also gave an Efficacy (Phalaris minor (PHAMI); [15]) of 15%, an Efficacy (Phalaris minor (PHAMI); [12]) of 15% and an Efficacy (Avena fatua (AVEFA); [13]) of 0%. For the same molecule, the Efficacy (Avena fatua (AVEFA); [10]) was 0%, the Efficacy (Avena fatua (AVEFA); [11]) was 35% and the Efficacy (Avena fatua (AVEFA); [15]) was 0%. It also gave an Efficacy (Avena fatua (AVEFA); [12]) of 0%, an Efficacy (Avena fatua (AVEFA); [14]) of 15% and an Efficacy (Bromus sterilis (BROST); [13]) of 0%. The Efficacy (Bromus sterilis (BROST); [9]) was 5%, the Efficacy (Bromus sterilis (BROST); [10]) was 0% and the Efficacy (Bromus sterilis (BROST); [11]) was 5%. For the same molecule, the Efficacy (Bromus sterilis (BROST); [12]) was 0%, the Efficacy (Bromus sterilis (BROST); [14]) was 0% and the Efficacy [2, 15] was 90%. For the same molecule, the Efficacy [2, 12] was 90%.
Molecule `Cc1nn(C)c(O)c1C(=O)c1ccc(C(F)(F)F)cc1S(C)(=O)=O` [pyrasulfotole] has an Efficacy (Poa annua (POAAN); [16]) of 0%, an Efficacy (Poa annua (POAAN); [17]) of 0% and an Efficacy (Poa annua (POAAN); [18]) of 0%. The Efficacy (Poa annua (POAAN); [19]) was 0%, the Efficacy [3, 16] was 50% and the Efficacy [3, 17] was 60%. It also gave an Efficacy [3, 18] of 0%, an Efficacy [3, 19] of 30% and an Efficacy [3, 20] of 0%. For the same molecule, the Efficacy [3, 21] was 30%, the Efficacy [1, 16] was 0% and the Efficacy [1, 17] was 0%. The Efficacy (Galium aparine (GALAP); [18]) was 40%, the Efficacy (Galium aparine (GALAP); [20]) was 40% and the Efficacy (Phalaris minor (PHAMI); [16]) was 0%. It also gave an Efficacy (Phalaris minor (PHAMI); [17]) of 5%, an Efficacy (Phalaris minor (PHAMI); [18]) of 0% and an Efficacy (Phalaris minor (PHAMI); [19]) of 0%. It also gave an Efficacy (Bromus sterilis (BROST); [16]) of 0%, an Efficacy (Bromus sterilis (BROST); [21]) of 0% and an Efficacy [2, 16] of 0%. For the same molecule, the Efficacy [2, 17] was 15% and the Efficacy [2, 19] was 3%.
With `CC(C)N(C)S(=O)(=O)NC(=O)c1cc(-n2c(=O)cc(C(F)(F)F)n(C)c2=O)c(F)cc1Cl` [saflufenacil] the Efficacy [3, 22] was 0%, the Efficacy [3, 23] was 10% and the Efficacy ([3]; 14 days after application, g of a.i./ha: A1-7 10, saflufenacil 2) was 0%. It also gave an Efficacy ([3]; 14 days after application, g of a.i./ha: A1-7 10, saflufenacil 8) of 10%, an Efficacy ([3]; 21 days after application, g of a.i./ha: A1-7 2.5, saflufenacil 2) of 0% and an Efficacy ([3]; 21 days after application, g of a.i./ha: A1-7 2.5, saflufenacil 8) of 0%. The Efficacy ([3]; 21 days after application, g of a.i./ha: A1-7 10, saflufenacil 2) was 0%, the Efficacy [3, 24] was 0% and the Efficacy [1, 22] was 0%. For the same molecule, the Efficacy [1, 23] was 10%, the Efficacy (Avena fatua (AVEFA); [22]) was 0% and the Efficacy (Bromus sterilis (BROST); [24]) was 5%.

Source: US10111435B2, “Herbicidal compositions containing N-(1,3,4-oxadiazol-2-yl)-aryl carboxylic acid amides” (BAYER CROPSCIENCE AKTIENGESELLSCHAFT, priority 2013, dated 2018)
